Measured values published in PMC10088252.

Details: 600 mg QD (n=10)

**Q.** Which results are given for `O=C(Nc1ccc(Oc2ccnc3c2CCN3)c(F)c1)c1c[nH]cc(-c2ccc(F)cc2)c1=O`?
**A.** TRAE Decreased Ccr, any grade: 2 (20.0) n (%); TRAE Decreased Ccr, grade 3-4: 0 n (%); TRAE Decreased appetite, any grade: 1 (10.0) n (%); TRAE Decreased appetite, grade 3-4: 1 (10.0) n (%); TRAE Diarrhoea, any grade: 1 (10.0) n (%); TRAE Diarrhoea, grade 3-4: 0 n (%); TRAE Dizziness, any grade: 0 n (%); TRAE Dizziness, grade 3-4: 0 n (%); TRAE Dry mouth, any grade: 0 n (%); TRAE Dry mouth, grade 3-4: 0 n (%); TRAE Dysgeusia, any grade: 5 (50.0) n (%); TRAE Dysgeusia, grade 3-4: 1 (10.0) n (%); TRAE Dyskinesia, any grade: 1 (10.0) n (%); TRAE Dyskinesia, grade 3-4: 1 (10.0) n (%); TRAE Dysphonia, any grade: 1 (10.0) n (%); TRAE Dysphonia, grade 3-4: 0 n (%); TRAE Dyspnoea, any grade: 1 (10.0) n (%); TRAE Dyspnoea, grade 3-4: 1 (10.0) n (%); TRAE Electrocardiogram QT prolonged, any grade: 0 n (%); TRAE Electrocardiogram QT prolonged, grade 3-4: 0 n (%); TRAE Elevated ALT, any grade: 3 (30.0) n (%); TRAE Elevated ALT, grade 3-4: 0 n (%); TRAE Elevated AST, any grade: 1 (10.0) n (%); TRAE Elevated AST, grade 3-4: 0 n (%); TRAE Elevated D dimer, any grade: 1 (10.0) n (%); TRAE Elevated D dimer, grade 3-4: 0 n (%); TRAE Elevated GGT, any grade: 0 n (%); TRAE Elevated GGT, grade 3-4: 0 n (%); TRAE Elevated LDH, any grade: 0 n (%); TRAE Elevated LDH, grade 3-4: 0 n (%); TRAE Elevated alpha-HBDH, any grade: 0 n (%); TRAE Elevated alpha-HBDH, grade 3-4: 0 n (%); TRAE Elevated bilirubin, any grade: 2 (20.0) n (%); TRAE Elevated bilirubin, grade 3-4: 0 n (%); TRAE Elevated blood creatinine, any grade: 1 (10.0) n (%); TRAE Elevated blood creatinine, grade 3-4: 0 n (%); TRAE Elevated creatine phosphokinase, any grade: 0 n (%); TRAE Elevated creatine phosphokinase, grade 3-4: 0 n (%); TRAE Elevated serum urea, any grade: 0 n (%); TRAE Elevated serum urea, grade 3-4: 0 n (%); TRAE Elevated troponin, any grade: 0 n (%); TRAE Elevated troponin, grade 3-4: 0 n (%); TRAE Genital rash, any grade: 1 (10.0) n (%); TRAE Genital rash, grade 3-4: 0 n (%); TRAE Haematuria, any grade: 0 n (%); TRAE Haematuria, grade 3-4: 0 n (%); TRAE Headache, any grade: 0 n (%); TRAE Headache, grade 3-4: 0 n (%); TRAE Hyperhidrosis, any grade: 0 n (%); TRAE Hyperhidrosis, grade 3-4: 0 n (%); TRAE Hyperlipidaemia, any grade: 0 n (%); TRAE Hyperlipidaemia, grade 3-4: 0 n (%); TRAE Hypertension, any grade: 2 (20.0) n (%); TRAE Hypertension, grade 3-4: 1 (10.0) n (%); TRAE Hypoaesthesia oral, any grade: 0 n (%); TRAE Hypoaesthesia oral, grade 3-4: 0 n (%); TRAE Hypocalcaemia, any grade: 1 (10.0) n (%); TRAE Hypocalcaemia, grade 3-4: 0 n (%); TRAE Hypotension, any grade: 0 n (%); TRAE Hypotension, grade 3-4: 0 n (%); TRAE Insomnia, any grade: 0 n (%); TRAE Insomnia, grade 3-4: 0 n (%); TRAE Leukopenia, any grade: 1 (10.0) n (%); TRAE Leukopenia, grade 3-4: 0 n (%); TRAE Nausea, any grade: 0 n (%); TRAE Nausea, grade 3-4: 0 n (%); TRAE Neuritis, any grade: 2 (20.0) n (%); TRAE Neuritis, grade 3-4: 0 n (%); TRAE Occult blood, any grade: 1 (10.0) n (%); TRAE Occult blood, grade 3-4: 0 n (%); TRAE Oedema peripheral, any grade: 1 (10.0) n (%); TRAE Oedema peripheral, grade 3-4: 0 n (%); TRAE Onycholysis, any grade: 0 n (%); TRAE Onycholysis, grade 3-4: 0 n (%); TRAE Oropharyngeal pain, any grade: 1 (10.0) n (%); TRAE Oropharyngeal pain, grade 3-4: 1 (10.0) n (%); TRAE PPE, any grade: 1 (10.0) n (%); TRAE PPE, grade 3-4: 0 n (%); TRAE Paraesthesia, any grade: 0 n (%); TRAE Paraesthesia, grade 3-4: 0 n (%); TRAE Proteinuria, any grade: 1 (10.0) n (%); TRAE Proteinuria, grade 3-4: 0 n (%); TRAE Pruritus, any grade: 0 n (%); TRAE Pruritus, grade 3-4: 0 n (%)
